# Assay results taken from patent US6624140B1, “Synthetic peptides with antimicrobial and endotoxin neutralizing properties for management of the sepsis syndrome” (Academisch Ziekenhuis Bij de Universiteit van Amsterdam …, priority 1997, dated 2003).
# No end group written: not given here.
# What was measured:
# [1] = test system: Gram-negative and Gram-positive bacteria; assay: Anti-microbial activity of analogues and further peptides (bacterium not specified); assay type: cell-based; conditions: even at the highest concentration tested (20 μg/ml)
# From the text: A peptide encompassing a selected LPS-binding domain from a well characterized human antiendotoxin protein, known as bactericidal/permeability increasing protein (BPI), from amino acids 85 to 102, denoted as BPI(85-102), was included for a direct comparison of the efficacy of the endotoxin-binding domain of a naturally occurring protein and the synthetic peptides of the invention. The amino acid sequence of the BPI(85-102) peptide is:
# The BPI(85-102) reference peptide was synthesized as previously described for peptides of the invention and provided with a C-terminal Cys residue for the purpose of biotinylation as previously described. […] Incubation of various concentrations of the synthetic peptides according to the invention for a limited time period on the survival of both types of bacteria again illustrated their potent anti-microbial activity as opposed to that of the BPI(85-102) peptide (FIG. 1) with the sequence corresponding to that of the potential LPS binding domain of the native BPI protein. This is indicative of a broad specificity of the synthetic peptides, in keeping with the general bactericidal properties of this class of linear amphipathic α-helical peptides. […]
# TNF-α production [2] = assay: TNF-α in whole blood ex vivo, peptide added before LPS challenge; assay type: cell-based, human; conditions: 2.5 to 20 μg/ml added 10 min before 1 ng/ml LPS
# Experimental: FIG. 12. Effect of pre-challenge addition of synthetic peptides on TNF-a levels induced by E. coli 0111:B4 LPS in whole blood ex vivo. The synthetic peptides BP2, BP2.1 or BP2.2 were added to whole blood containing heparin at 2 I.U/ml at the concentrations indicated and incubated for 10 min at 37° C. TNF-α concentrations were measured after incubation for 4 h at 37° C. subsequent to addition of E. coli 0111:B4 LPS at 1 ng/ml. The values represent the means of triplicate experiments. Controls only contained added LPS.
# To determine whether addition of synthetic peptide to whole blood ex vivo prior to endotoxin challenge was effective in endotoxin neutralization assayed in terms of cytokine production, a synthetic peptide of the invention BP2, and the analogues BP2.1 or BP2.2 were added at concentrations of 2.5 to 20 μg/ml to whole blood and incubated for 10 min at 37° C. prior to the addition of 1 ng/ml E. coli 0111:B4 LPS. TNF-α concentrations were determined as previously described. […] The structurally related LPS-binding synthetic peptide analogues BP2.1 and BP2.2 were ineffective in endotoxin neutralization under these conditions.
# [3] = Turbidity assay of endotoxin complexation; assay type: binding, Escherichia coli; conditions: 2-fold molar excess of synthetic peptide
# Experimental: FIG. 2. Endotoxin complexation activity of the synthetic peptides. Peptides at concentrations of 100 to 600 μg/ml were incubated with E. coli D31m4 Re or J5 LPS at 100 μg/ml in a total volume of 100 μl pyrogen-free phosphate buffered saline (PBS) in plastic ELISA microtiter plates for 30 min at 23° C. The turbidity produced by the insoluble peptide-endotoxin complexes was measured at 340 nm. The values represent the mean of three determinations and were corrected for controls containing the same concentrations of endotoxin or peptide.
# (§1) Double-immunodiffusion of the peptides of the invention against ‘rough’ R-type E. coli D31m4 Re-LPS (List Biological Laboratories Inc., Calif.) or the structurally more complex ‘smooth’ S-type E. coli 0111:B4 LPS (Sigma Chemical Co., Rockford, Ill.) was performed in 0.8% (w/v) agarose containing 50 mM Tris and 0.1% (w/v) Triton X100, pH 7.5. for 16 h at 20° C. PmB and BPI(85-102) were included as control compounds for comparative purposes. The microprecipitates formed were visualized by Coommassie brilliant blue staining. […] Since the amount of precipitate formed is a function of valency, the peptides of the invention appear to be capable of a high degree of intermolecular binding of LPS molecules via the Lipid A moieties. […] A turbidity assay was employed for a direct comparison of the endotoxin-binding activity or avidity of selected synthetic peptides according to the invention using the ‘rough’ serotypes E. coli Re or Rc (J5) LPS. PmB and BPI(85-102) were included as control compounds for comparative purposes. The degree of precipitation of endotoxin by the synthetic peptides according to the invention was determined by measurement of the optical density of insoluble complexes formed at 340 nm (FIG. 2). In most instances optimal complexation of Re or J5 LPS by the synthetic peptides of the invention was evident at a molar ratio of peptide to endotoxin of 1 to 2. The control BPI(85-102) peptide was required at a 4-fold molar excess for approximately the same degree of complexation. […] There was no significant difference between complexation of Re or the structurally more complex J5-LPS by the synthetic peptides. […] The Lipid A binding affinity of the synthetic peptides were directly compared in a solid-state endotoxin-binding assay. Binding characteristics of biotinylated derivatives of the synthetic peptides BP1, BP2, BP2.1 and the control peptide BPI(85-102) were determined on ELISA microtiter plates coated with E. coli D31m4 Lipid A. Specific binding of the biotinylated peptides to the immobilized Lipid A was determined by development with Streptavidin-HRP and 3, 5, 3′, 5′ tetra-methylbenzidine (TMB) substrate and expressed as the corrected optical density at 450 nm. […] The affinity of the novel synthetic peptide BP2 for endotoxin of increasing complexity as well as the effect of plasma on binding was examined with the use of the ELISA microplate assay.
# TNF-α production [4] = assay: TNF-α in whole blood ex vivo after pre-incubation of LPS with peptide; assay type: cell-based, human; conditions: 1 to 10 μg/ml pre-incubated with 1 ng/ml LPS, even at lowest concentration 1 μg/ml, 4 h at 37° C.
# Experimental: FIG. 11. Effect of pre-incubation of E. coli 0111:B4 LPS with synthetic peptides or Polymyxin B on TNF-α levels in whole blood ex vivo. The indicated amounts of synthetic, control peptides or PmB were pre-incubated with E. coli 0111:B4 LPS at 1 ng/ml for […] at 23° C., added to whole blood containing heparin at 2 I.U/ml and the TNF-α concentrations determined after incubation for 4 h at 37° C. Each value is the mean of triplicate experiments. Controls only contained LPS.
# In addition, the LPS-neutralizing activity of selected synthetic peptides of the invention were compared in a more complex environment of whole blood ex vivo to determine the effect of physiological concentrations of blood components such as plasma proteins, blood cells etc. on the detoxification efficacy. In pre-incubation experiments, concentrations of synthetic peptides, control peptide or PmB from 1 to 10 μg/ml were pre-incubated with 1 ng/ml E. coli 0111:B4 LPS in pyrogen-free saline for 30 min at 23° C., added to venous blood containing heparin at 2 I.U/ml as anti-coagulant and incubated for 4 h at 37° C. TNF-α concentrations were determined in appropriately diluted cell-free supernatants as described before.
# [5] = Solid-state Lipid A binding ELISA microplate assay; set-up: species or system Escherichia coli; conditions: biotinylated derivatives; immobilized E. coli D31m4 Lipid A; Scatchard plot
# Experimental: FIG. 3. Lipid A binding affinity of the synthetic peptides. Plastic ELISA microtiter plates were coated with purified E. coli D31m4 Lipid A at 1 μg/ml. Incubations were for 20 min with the indicated concentrations of synthetic peptides BP1, BP2 or BP2.1 or control peptide BPI(85-102) followed by streptavidin-HRP at a dilution of 1 in 20 000. Washing steps to remove excess peptide or streptavidin were with 50 mM Tris buffer pH 7.4 containing 0.05% (v/v) Tween 20. Development was with TMB substrate for 10 min. The optical density (O.D) at 450 nm was measured with a microplate reader and values were corrected for non-specific binding which was generally between 5 and 10%. The plotted values are the corrected means of triplicate experiments.
# as §1
# [6] = test system: IL-6 inducing ability of E. coli 0111:B4 LPS; assay: Effect of heparin on neutralization of IL-6 inducing ability of LPS; assay type: cell-based, human; conditions: heparin 0.1 to 100 I.U/ml
# Experimental: FIG. 10. Effect of heparin on the efficacy of neutralization of the IL-6 inducing ability of E. coli 0111:B4 LPS by synthetic peptide or Polymyxin B in whole blood diluted 1 in 10. Synthetic peptides at concentrations of 2 μg/ml or PmB at 1 μg/ml was pre-incubated for 30 min at 37° C. with E. coli 0111:B4 LPS at 1 ng/ml in RPMI medium containing heparin in the concentration range of 0.1 to 100 I.U/ml. The residual cytokine inducing ability of the treated endotoxin was determined in diluted whole blood containing heparin at 2 IU/ml after incubation for 16 h at 37° C. Each value is the mean of triplicate determinations corrected for background. Controls contained only LPS.
# The endotoxin neutralizing activities of the synthetic peptides of the invention were evaluated by investigating the effect on LPS-stimulated release of the pro-inflammatory cytokines, tumor necrosis factor alpha (TNF-α), interleukin-6 (IL-6) or interleukin-8 (IL-8) in a well characterized in vitro human whole blood bioassay system. In one series of experiments, dilutions of E. coli 0111:B4 LPS from 0.2 to 1 ng/ml were pre-incubated with synthetic peptides at 10 μg/ml concentrations in RPMI medium for 30 min at 20° C. and added to diluted whole blood. Cytokine concentrations in the supernatants were determined after further incubation for 16 h at 37° C. in the presence of 5% CO2 by specific and sensitive ELISA kits (CLB, Amsterdam, The Netherlands). In another series of experiments, the effects of synthetic peptides at concentrations of 2,5, 5 and 10 μg/ml on IL-6 induction by 1 ng/ml 0111:B4 LPS was examined after simultaneous addition of synthetic peptide and LPS to diluted whole blood. […] The control peptide BPI(85-102) was ineffective in reducing cytokine production under these conditions even at a 4-fold higher concentration. This probably reflects the differences in binding affinity for Lipid A of BP1 and BP2 compared with the BPI(85-102) peptide of approximately 5 and 10-fold, respectively. An additional factor which may have influenced binding of the control peptide to endotoxin is the presence of heparin employed as an anti-coagulant at a concentration of […] in the assay system. […] On this basis, it was predicted that the extent of reduction of endotoxin neutralizing efficacy would be a function of the differences in affinity between peptides for endotoxin and heparin. To verify this hypothesis, a series of experiments to determine the effect of increasing heparin concentrations on the efficacy of endotoxin neutralization during pre-incubation of synthetic peptide and E. coli 0111:B4 LPS were performed. FIG. 10 illustrates a dose-dependent suppression of endotoxin neutralizing activity of the synthetic peptides by heparin as exemplified by a reduction of IL-6 inhibition. […]
# [7] = Double-immunodiffusion against 0111:B4 LPS; assay type: binding, Escherichia coli; conditions: 0.8% agarose, 16 h at 20° C.; data not shown
# Experimental: Double-immunodiffusion of the peptides of the invention against ‘rough’ R-type E. coli D31m4 Re-LPS (List Biological Laboratories Inc., Calif.) or the structurally more complex ‘smooth’ S-type E. coli 0111:B4 LPS (Sigma Chemical Co., Rockford, Ill.) was performed in 0.8% (w/v) agarose containing 50 mM Tris and 0.1% (w/v) Triton X100, pH 7.5. for 16 h at 20° C. PmB and BPI(85-102) were included as control compounds for comparative purposes. The microprecipitates formed were visualized by Coommassie brilliant blue staining. […] Since the amount of precipitate formed is a function of valency, the peptides of the invention appear to be capable of a high degree of intermolecular binding of LPS molecules via the Lipid A moieties. […] The degree of precipitation of endotoxin by the synthetic peptides according to the invention was determined by measurement of the optical density of insoluble complexes formed at 340 nm (FIG. 2). […] Binding characteristics of biotinylated derivatives of the synthetic peptides BP1, BP2, BP2.1 and the control peptide BPI(85-102) were determined on ELISA microtiter plates coated with E. coli D31m4 Lipid A. Specific binding of the biotinylated peptides to the immobilized Lipid A was determined by development with Streptavidin-HRP and 3, 5, 3′, 5′ tetra-methylbenzidine (TMB) substrate and expressed as the corrected optical density at 450 nm. […]
# [8] = comparison value; cited from earlier work
Substance,anti-microbial activity [1],endotoxin neutralization (TNF-α production) (TNF-α production [2]),avidity order (degree of insoluble peptide-endotoxin complex formation) [3],inhibition of TNF-α production (TNF-α production [4]),apparent binding affinity Ka for Lipid A [5],influence of heparin on LPS-neutralizing activity [6],precipitation of 0111 LPS [7],Ka for Lipid A of known LPS binding molecule [8]
"GKLKKKWKAAKKFLKKCS [BP1.1, analogue similar to the formula]",no detectable anti-microbial activity,–,–,–,–,–,–,–
"GKWKAFKKAAKKFAKKCS [BP2.2, analogue similar to the formula]",–,ineffective,BP2.1>BP2.2>BP2>BP1>PmB >BPI(85-102),no significant reduction,–,–,–,–
"GKWKLFKKAAKKFLKKCS [BP2.1, analogue similar to the formula]",no detectable anti-microbial activity,ineffective,BP2.1>BP2.2>BP2>BP1>PmB >BPI(85-102),no significant reduction,4e+07 M⁻¹,–,–,–
"Polymyxin B [PmB, reference compound]",–,–,BP2.1>BP2.2>BP2>BP1>PmB >BPI(85-102),almost complete inhibition,–,not influenced,failed to precipitate,10^7 M^−1
